Some test systems named below: SR; K562; Malme-3M; OVCAR-3; UACC-257; SF-295; T47D; NCI/ADR-RES; U-251; CAKI-1; OVCAR-8; SK-MEL-5; SK-MEL-2; NCI-H226; IGROV-1; UACC-62; RXF 393; M14; LOX IMVI; MDA-N.
What all share (assay): NCI tumour cell line growth inhibition, 48 h

Here are results for eight compounds from ChEMBL document CHEMBL1201862, “PubChem BioAssay data set” (2004).

The structures appear in SMILES notation.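 The compound was tested at five concentrations on cells cultured in 96-well plates, with a 48-hour exposure period. GI50 marks 50% less growth.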 Active and inactive are the calls of the source. Cut-off read from the data, not from the text of the source: active = GI50 up to about 1.1 µM and inactive = higher.

Consider `Clc1ccccc1CN1COc2c(cc(Cl)c3cccnc23)C1`, for which the GI50 is 0.439 µM (active) with SR; 2.99 µM (inactive) in the test with K562; 2.47 µM (inactive) in the test on Malme-3M; 6.59 µM (inactive) in the test on OVCAR-3; 3.43 µM (inactive) with UACC-257; 1.85 µM (inactive) in the test on SF-295. Also, the GI50 was 6.05 µM (inactive) in the test with T47D; 0.224 µM (active) in the test on NCI/ADR-RES; 3.33 µM (inactive) with U-251; 4.49 µM (inactive) in the test with CAKI-1; 2.85 µM (inactive) in the test with OVCAR-8; 1.38 µM (inactive) with SK-MEL-5. Also, the GI50 was 6.19 µM (inactive) in the test on SK-MEL-2; 1.3 µM (inactive) with NCI-H226; 5.55 µM (inactive) with IGROV-1; 1.52 µM (inactive) in the test with UACC-62; 13.7 µM (inactive) in the test on RXF 393; 3.77 µM (inactive) in the test on M14.

For `CC1=C(C(=O)N(C)c2ccc(Cl)c(C(=O)OC(C)C)c2)SCCO1`, the GI50 in the test with K562 is 29 µM (inactive); in the test on Malme-3M, 72.3 µM (inactive); in the test on OVCAR-3, > 100 µM (inactive); with UACC-257, 43.3 µM (inactive); in the test with SF-295, 60.1 µM (inactive); in the test with T47D, 31.2 µM (inactive). Further, the GI50 in the test on NCI/ADR-RES is 26.7 µM (inactive); in the test on U-251, 92.3 µM (inactive); in the test on CAKI-1, > 100 µM (inactive); in the test on OVCAR-8, 70.6 µM (inactive); in the test with SK-MEL-5, 29.6 µM (inactive); in the test on SK-MEL-2, > 100 µM (inactive). Further, the GI50 in the test on NCI-H226 was 44.6 µM (inactive); in the test on IGROV-1, 98.6 µM (inactive); in the test on LOX IMVI it was > 100 µM (inactive); in the test with UACC-62 it was 53.1 µM (inactive); with M14, > 100 µM (inactive).

`CCCCCCc1cc2cc(-c3cn4c(n3)sc3ccccc34)c(=O)oc2cc1O`: the GI50 in the test on SR is > 29.8 µM (inactive); in the test on K562, > 100 µM (inactive); in the test with Malme-3M, 2.36 µM (inactive); in the test on OVCAR-3 it was > 100 µM (inactive); in the test with UACC-257, 4.42 µM (inactive); in the test on SF-295 it was > 100 µM (inactive). For the same compound, the GI50 in the test on T47D was > 100 µM (inactive); in the test with NCI/ADR-RES, > 100 µM (inactive); in the test on U-251, > 100 µM (inactive); in the test on CAKI-1, > 100 µM (inactive); in the test on OVCAR-8, 5.82 µM (inactive); in the test with SK-MEL-5 it was > 100 µM (inactive). For the same compound, the GI50 is > 100 µM (inactive) with SK-MEL-2; > 100 µM (inactive) in the test with NCI-H226; > 100 µM (inactive) in the test with IGROV-1; > 100 µM (inactive) in the test on LOX IMVI; 2.36 µM (inactive) in the test on UACC-62; > 48.3 µM (inactive) with RXF 393. Moreover, in the test on M14, the GI50 was 4.94 µM (inactive).

As to `CCOC(=O)N(NC(=O)NC(C)C)c1ccccc1`, the GI50 with SR, in the test on K562, in the test with Malme-3M, with OVCAR-3, in the test on UACC-257 and in the test on SF-295 was > 100 µM (inactive) throughout. The GI50 in the test with NCI/ADR-RES, in the test on U-251, in the test on CAKI-1, in the test on OVCAR-8, in the test with SK-MEL-5 and with SK-MEL-2 was > 100 µM (inactive) throughout. The GI50 with NCI-H226, in the test with IGROV-1, in the test on MDA-N, in the test with LOX IMVI, in the test on UACC-62 and in the test on RXF 393 was > 100 µM (inactive) in each case. The GI50 with M14 was > 100 µM (inactive).

Take `N#CCN1CCCCCc2ccccc21`: the GI50 with SR was > 100 µM (inactive); with K562, > 100 µM (inactive); in the test on Malme-3M, > 100 µM (inactive); in the test on UACC-257 it was > 100 µM (inactive); in the test on SF-295, 53.5 µM (inactive); in the test on T47D, > 100 µM (inactive). The GI50 in the test on NCI/ADR-RES, in the test with U-251, with OVCAR-8, in the test on SK-MEL-5, in the test with NCI-H226 and in the test on IGROV-1 was > 100 µM (inactive) in each case. Further, the GI50 with UACC-62, with RXF 393 and in the test with M14 was > 100 µM (inactive) in each case.

Turning to `COc1ccc2[nH]c3c(c2c1)CC(=O)N1CCCC(CC3O)C1` (stereo unspecified), the GI50 in the test on K562, in the test with Malme-3M, in the test with UACC-257, in the test with SF-295, in the test with T47D and with NCI/ADR-RES was > 100 µM (inactive) in each case. Besides, the GI50 with U-251, with CAKI-1, in the test with OVCAR-8, in the test with SK-MEL-5, in the test with SK-MEL-2 and in the test on NCI-H226 was > 100 µM (inactive) in each case. Besides, the GI50 in the test with IGROV-1, with MDA-N, with LOX IMVI and in the test with UACC-62 was > 100 µM (inactive) throughout.

Take `CNC(=O)OCC1=C(COC(=O)NC)C(C)N(c2ccc(OC)cc2)C1` (stereo unspecified): the GI50 in the test with SR is 15.7 µM (inactive); with K562, 69.2 µM (inactive); in the test with Malme-3M, > 100 µM (inactive); in the test with OVCAR-3, 43 µM (inactive); in the test with UACC-257, 36.7 µM (inactive); in the test with SF-295, 88.9 µM (inactive). Besides, the GI50 in the test with T47D is 37.1 µM (inactive); with NCI/ADR-RES, 60.4 µM (inactive); in the test on U-251 it was 22.4 µM (inactive); in the test on OVCAR-8 it was 80.4 µM (inactive); with SK-MEL-5 it was > 100 µM (inactive); with SK-MEL-2 it was > 100 µM (inactive). Also, the GI50 is 1.18 µM (inactive) in the test with NCI-H226; 29 µM (inactive) with IGROV-1; > 100 µM (inactive) in the test with LOX IMVI; 15.3 µM (inactive) in the test on UACC-62; 54.6 µM (inactive) in the test with RXF 393; 69.5 µM (inactive) in the test on M14.

As for `CC1CCC2C(C)(C)CC3(C)CCC1C23O` (stereo unspecified), the GI50 in the test with SR was 12.3 µM (inactive); with K562, 12.4 µM (inactive); with Malme-3M, 13.3 µM (inactive); in the test with OVCAR-3 it was 16.3 µM (inactive); with UACC-257, 16.2 µM (inactive); with SF-295, 12.7 µM (inactive). The GI50 with NCI/ADR-RES was 14.6 µM (inactive); in the test with U-251 it was 16 µM (inactive); in the test with CAKI-1 it was 14.2 µM (inactive); in the test on OVCAR-8, 17.2 µM (inactive); in the test on SK-MEL-5, 14.6 µM (inactive); in the test on SK-MEL-2 it was 14.1 µM (inactive). The GI50 in the test with NCI-H226 was 15.3 µM (inactive); in the test on IGROV-1 it was 14.6 µM (inactive); in the test on MDA-N, 12.7 µM (inactive); in the test on LOX IMVI, 15.3 µM (inactive); in the test on UACC-62 it was 14.9 µM (inactive); in the test on RXF 393 it was 17 µM (inactive). In addition, in the test on M14, the GI50 was 16 µM (inactive).
